Laboratory results reported in PubChem BioAssay AID624344 (Sanford-Burnham Center for Chemical Genomics, 2012).
Active and inactive are the calls of the source. The rule behind the calls is not given here.

Assays:
Cytotoxicity = assay: inhibitors of PAF-induced NFkB signaling in CF airway cells, dose response, cell-based, uHTS hits, panel, cytotoxicity readout (AID 624344); details: CF bronchial epithelial cells, mean of runs
[1] = as above; details: CF bronchial epithelial cells, PAF-induced NFkB reporter inhibition; with PAF, mean of runs

Row | SMILES | IC50 (Cytotoxicity) | IC50 [1]
1 | Cc1ccc(C(=O)Nc2cccc(C(F)(F)F)c2)cc1NC(=O)c1nccnc1N | 9.52 µM | 8.15 µM
2 | O=S(=O)(c1ccc(Br)cc1)c1cnc2ccccc2n1 | 7.65 µM | 6.57 µM
3 | O=C(c1nnsc1S(=O)(=O)c1ccc(Cl)cc1)N1CCOCC1 | 9.67 µM | 3.85 µM
4 | COc1ccc(-c2cc(NC=O)c3ncc(-c4cc(OC)c(OC)c(OC)c4)n3c2)cc1 | 28.9 µM | > 79 µM (inactive)
5 | CC(=O)OC1(C)CC(C)C(=O)C(C(O)CC2CC(=O)NC(=O)C2)C1 (configuration not stated) | 0.177 µM | < 0.15 µM
6 | O=c1[nH]nc(Sc2ncnc3sccc23)n1CCc1ccccc1 | 19 µM | 3.07 µM
7 | Cc1cccc2sc(N(CCCN(C)C)C(=O)CCS(=O)(=O)c3ccccc3)nc12 | 7.52 µM | 3.22 µM
8 | CCOc1ccc(C(C(=O)NCC2CCCO2)N(Cc2cccs2)C(=O)c2snc(C(N)=O)c2N)cc1 (configuration not stated) | > 79 µM (inactive) | 3.47 µM
9 | C=CCc1cc(S(=O)(=O)c2ccc(O)c(CC=C)c2)ccc1O | 56.8 µM (inactive) | 6.34 µM
10 | C=C1C(=O)O[C@@H]2[C@H]3O[C@]3(C)CC/C=C(\C)CC[C@@H]12 | 18.1 µM | 3.59 µM
11 | C=CCN1c2ccccc2Sc2cnccc21 | 40.6 µM | 2.59 µM
12 | COc1ccc(-c2cn[nH]c2-c2ccc(OCc3ccccc3F)cc2O)cc1OC | 18 µM | 3.57 µM
13 | Cc1ccc(-c2cc(C(=O)N/N=C/c3c(C)nn(-c4ccccc4)c3C)[nH]n2)cc1 | > 79 µM (inactive) | inactive
14 | CCOc1cccc(-c2nnc3sc(C4CCCCC4)nn23)c1 | 33.3 µM | 2.88 µM
15 | C=C1C(=O)C2=CC1CCC(=O)C1(C)CCC(OC(C)=O)C(C)(C)C1CC2O (configuration not stated) | 13.3 µM | 1.35 µM
16 | CCNC(=O)C1(C)CCCN(Cc2ccc(-c3ccccc3)o2)C1 (configuration not stated) | > 79 µM (inactive) | 9 µM
17 | Cc1ccc(CNc2ncnc(N)c2[N+](=O)[O-])cc1 | 73.3 µM (inactive) | 6.41 µM
18 | CCOC(=O)[C@@H]1[C@H]2COc3ccc(Br)cc3[C@H]2N2C(=O)N(c3ccc(C)cc3)C(=O)[C@]12C | > 79 µM (inactive) | > 79 µM (inactive)
19 | CCSc1nsc(NC(=O)Nc2cccc(C(C)=O)c2)n1 | 36.5 µM | 2.24 µM
20 | COC(=O)c1c(C)n(-c2ccc(OC)cc2)c2ccc(O)cc12 | 42.2 µM | 2.37 µM
21 | Cc1cnc(NC(=O)C2CC(=O)N(c3cccc(Cl)c3)C2)s1 (configuration not stated) | 29.1 µM | 3.18 µM

Row | SMILES | IC50 (Cytotoxicity) | IC50 [1]
22 | O=C(Nc1ccc2ccccc2c1)c1ccccc1O | 2.5 µM | 5.07 µM
23 | Cc1ccc(NC(=O)c2ccccc2NS(=O)(=O)c2ccc(Cl)s2)cc1S(=O)(=O)N1CCOCC1 | 8.23 µM | 3.36 µM
24 | CCCCCOC(=O)c1[nH]c2c(c1C)C(=O)CC(c1ccco1)C2 (configuration not stated) | > 79 µM (inactive) | 10.8 µM
25 | COc1cc2c(c(OC)c1OC)-c1ccc(O)cc1C(NC(C)=O)CC2 (configuration not stated) | > 79 µM (inactive) | > 79 µM (inactive)
26 | Cc1cc(C)c(O)c(CN(C)Cc2cc(Cl)cc(Cl)c2O)c1 | 9.57 µM | 4.39 µM
27 | O=C1NC(=S)N/C1=C\c1cccnc1 | > 79 µM (inactive) | 5.71 µM
28 | CCc1nccn1C(=O)c1cnn2c(C(F)F)cc(-c3ccc(C)cc3)nc12 | 6.64 µM | 3.86 µM
29 | S=c1[nH]nc(-c2ccncc2)n1/N=C/C(Cl)=C\c1ccccc1 | 35 µM | 1.06 µM
30 | COc1ccc(/C=N/NC(=O)c2[nH]c3ccc(Br)cc3c2-c2ccccc2)cc1 | 27 µM | 9.3 µM
31 | Oc1ccc(Br)cc1-c1nc2cnccn2c1NC1CCCC1 | 14.5 µM | 3.04 µM
32 | CC1Cc2ccccc2N1c1ncnc2nc[nH]c12 (configuration not stated) | 36.2 µM | 2.46 µM
33 | CCc1ccc(N(CC)c2ncnc3nc[nH]c23)cc1 | > 79 µM (inactive) | 1.82 µM
34 | Cc1cccc(N=c2oc3cc(O)ccc3cc2C(N)=O)c1 | 45.3 µM | 2.77 µM
35 | COC(=O)C1=C(C(=O)OC)[C@@H]2N(Cc3ccccc3)c3ccccc3[C@@]23C[C@@H](C(=O)OC)N(C(=O)c2ccc(Br)cc2)C3=N1 | 28.5 µM | 5.67 µM
36 | O=S(=O)(Nc1cccc2cccnc12)c1ccccc1 | 44.5 µM | 1.69 µM
37 | Brc1ccc2ncnc(NCc3ccco3)c2c1 | 72.7 µM (inactive) | 5.67 µM
38 | CC(C)c1nc(Cl)c(C#N)c2c1CCCC2 | 71.6 µM (inactive) | 3.57 µM
39 | O=C(Nc1nc2ccc(F)cc2s1)C1CCN(S(=O)(=O)c2cc([N+](=O)[O-])ccc2Cl)CC1 | 10.8 µM | 6.4 µM
40 | NC(=O)c1nsc(C(=O)N(c2ccccc2)C(C(=O)NCc2ccc(F)cc2)c2ccc(O)cc2)c1N (configuration not stated) | 8.81 µM | 4.75 µM
41 | Cn1c(N2CCN(C(c3ccccc3)c3ccccc3)CC2)nc2c1c(=O)[nH]c(=O)n2C | 7.56 µM | 3.69 µM
42 | CC1(C)Cc2c(ccc3ccccc23)C(=O)N1 | > 79 µM (inactive) | 3.27 µM

Row | SMILES | IC50 (Cytotoxicity) | IC50 [1]
43 | Cc1cccc(NC(=O)c2nc[nH]c2C(=O)NCCCNC(=O)c2[nH]cnc2C(=O)Nc2cccc(C)c2)c1 | 11.4 µM | 4.07 µM
44 | C=C1C(=O)O[C@@]23[C@H]1CC[C@@H](C)[C@@H]2CC[C@@]1(C)O[C@@H]31 | 44.9 µM | 3.76 µM
45 | Nc1nc(N)nc(-c2cc([N+](=O)[O-])ccc2O)n1 | > 79 µM (inactive) | 8.82 µM
46 | COc1cc(NC(=O)Cn2ncc(Cl)c(Cl)c2=O)c(C)cc1[N+](=O)[O-] | 3.15 µM | 3.31 µM
47 | NS(=O)(=O)c1ccc(CCNC(=O)c2ccc(C#CC3(O)CCCCC3)cc2)cc1 | 5.01 µM | 3.47 µM
48 | CCC(=O)Nc1nc(C)c(-c2csc(Nc3cccc(O)c3)n2)s1 | > 79 µM (inactive) | 3.06 µM
49 | CCc1ccc(Nc2n[n+](-c3ccccc3)c(-c3c(Cl)cccc3Cl)s2)cc1 | 6.29 µM | 5.47 µM
50 | COc1ccc(S(=O)(=O)N2c3cc(C)ccc3OCC2C(C)(C)C)cc1 (configuration not stated) | > 79 µM (inactive) | 6.36 µM
51 | COc1ccc(-n2nc(C(=O)NCC(=O)Nc3cc(OC)c(OC)c(OC)c3)c3ccccc3c2=O)cc1OC | 14.6 µM | 2.25 µM
52 | COc1ccc(COC(=O)C2=C(C)NC(=O)NC2c2ccc(F)cc2)cc1 (configuration not stated) | 39.8 µM | 8.9 µM
53 | O=C(Nc1cccc(S(=O)(=O)N2CCCCC2)c1)Nc1ccc(Cl)cc1Cl | 10.6 µM | 8.83 µM
54 | Cc1ccc(S(=O)(=O)Nc2cccc3ncccc23)s1 | > 79 µM (inactive) | 1.48 µM
55 | COc1ccc(OC)c(-c2nnc3n2N=C(c2ccc(OC)c(OC4CCCC4)c2)CS3)c1 | > 79 µM (inactive) | 6.47 µM
56 | CN(C)CCCN(C(=O)CCS(=O)(=O)c1ccccc1)c1nc2cc3c(cc2s1)OCO3 | 7.47 µM | 1.7 µM
57 | O=C(Nc1ccc(OCC(=O)N2CCOCC2)cc1)c1cncc(Br)c1 | > 79 µM (inactive) | 6.67 µM
58 | Cc1ccccc1C(=O)N1CCN(c2ccc(NC(=O)c3cccc(OC(C)C)c3)cc2)CC1 | > 79 µM (inactive) | 6.7 µM
59 | CCC(Oc1ccccc1)C(=O)Nc1ncc([N+](=O)[O-])s1 (configuration not stated) | 31 µM | 9.05 µM
60 | CCC(CO)Oc1cc(NCc2ccc(Cl)cc2Cl)c2ncn(C(C)C)c2c1 (configuration not stated) | 11 µM | inactive
61 | CCOC(=O)c1[nH]c(C)c(C(=O)N2CCc3ccccc32)c1C | 44.5 µM | > 79 µM (inactive)
62 | O=[N+]([O-])c1ccc2ncnc(N3CCN(Cc4ccc5c(c4)OCO5)CC3)c2c1 | > 79 µM (inactive) | 2.62 µM
63 | CC1(Cc2cccc(F)c2)C(=O)Nc2ccc(-c3cccnc3)cc21 (configuration not stated) | 67.9 µM (inactive) | 1.58 µM

Row | SMILES | IC50 (Cytotoxicity) | IC50 [1]
64 | Oc1ccc(CCNc2ncnc3ccc(Cl)cc23)cc1 | 40.6 µM | 0.831 µM
65 | Cc1ccnc(NC(=O)Cc2ccc(-c3ccccc3)cc2)c1 | 47.8 µM | 9.06 µM
66 | COc1ccc(-n2ncc3c(N4CCN(Cc5ccccc5)CC4)ncnc32)cc1 | 6.95 µM | 3.85 µM
67 | CCc1cc2c(Sc3nc4ccccc4s3)ncnc2s1 | 1.74 µM | 1.03 µM
68 | CCOC(=O)/C=c1/s/c(=C\c2c(OC)ccc3ccccc23)c(=O)n1CC(=O)NCC1CCCO1 (configuration not stated) | > 79 µM (inactive) | > 79 µM (inactive)
69 | COc1ccccc1NS(=O)(=O)c1ccc(-c2cnc(C3CC3)o2)cc1 | > 79 µM (inactive) | 16.7 µM
70 | c1cc(-c2cnc3cccnn23)c2cccnc2c1 | > 79 µM (inactive) | 2.33 µM
71 | C=C1C(=O)[C@]23C[C@H]1CCC2[C@]1(C)C(=O)CC[C@@](C)(C(=O)O)C1C[C@@H]3O (some centres not stated) | 14.4 µM | 0.96 µM
72 | CCOc1ccc(-n2cc(-c3ccccc3)c3c(N4CCOCC4)ncnc32)cc1 | 7.28 µM | 3.99 µM
73 | N#CC1c2ccccc2-n2nncc2CN1Cc1cc(Cl)cc(Cl)c1 (configuration not stated) | 1.6 µM | 2.16 µM
74 | O=[N+]([O-])c1cccc(/C=N/Nc2cc(N3CCOCC3)ncn2)c1 | 19.1 µM | 3.21 µM
75 | CCN1CCN(Cc2ccc(NC(=O)c3ccc(C)c(NC(=O)c4csc(-c5ccncc5)n4)c3)cc2C(F)(F)F)CC1 | 19.9 µM | 6.08 µM
76 | O=C(NC1CCCC(C(F)(F)F)C1)c1ccc([N+](=O)[O-])o1 (configuration not stated) | 11 µM | 3.87 µM
77 | COc1ccc(CNc2ncnc3ccccc23)cc1 | 59.5 µM (inactive) | 15.3 µM
78 | COc1ccc(-n2cc(-c3ccccc3)c3c(N4CC(C)OC(C)C4)ncnc32)cc1 (configuration not stated) | 3.56 µM | 4.95 µM
79 | Cc1ccnc(NC(=O)CCCOc2cc(=O)n(C)c3ccccc23)c1 | 62.3 µM (inactive) | 11.2 µM
80 | C=CC[C@@H](CC(=O)N[C@H](CO)Cc1ccccc1)C(=O)NC[C@H](OC(=O)[C@@H](CC=C)Cc1ccc(F)cc1)c1ccccc1 | 8.91 µM | 5.6 µM
81 | Cc1ccc2occ(/C=N/NC(=O)c3ccccc3C)c(=O)c2c1 | 43.2 µM | 1.36 µM
